Measured values from patent publication US20240277749A1, “NEW FORMULATIONS COMPRISING AZACITIDINE” (NANEXA AB, priority 2021, published 2024).

Columns and labels:
[1] = standard of care over seven consecutive days by injection or infusions, cited from earlier work
clinical = details: human, plasma, sc, 100 mg/m2

With Nc1ncn([C@@H]2O[C@H](CO)[C@@H](O)[C@H]2O)c(=O)n1 [azacitidine, 4-amino-1-®-D-ribofuranosyl-s-triazin-2(1H)-one] as the compound, how does the “average AUC∞” value ([1]; 525 mg/m^2 of BSA) read?
The value was 960 ± 458 ng·h/mL.

What about the “average Cmax” value [1] of the same compound?
Its value is 750 ± 403 ng/mL.

And the AUC(0-inf) (clinical)?
Its AUC(0-inf) is 1120 ng·h/mL.

What about the Cmax (clinical) of the same compound?
The Cmax was 562 ng/mL.

And the Tmax (clinical)?
The Tmax was 0.433 h.

And the half-life (clinical)?
Its half-life is 6.82 h.
